Results reported in the supplement of paper PMC8617591.

Assays:
[1] = system: Mycobacterium tuberculosis Erdman (autoluminescent); assay: GRinf, maximum normalised growth rate inhibition (three-drug combination) (unitless (-1 to 1)); higher = less effect (negative = killing)
Method: (§1)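 DiaMOND equipotent three-drug combination dose responses (10 doses, 1.5- or 2-fold spacing, centred on IC90) against autoluminescent M. tuberculosis Erdman in 8 in vitro models. Read-out is OD600, or luminescence for the intracellular and dormancy models, normalised to untreated wells. Hill-fit Einf, AUC25 and GRinf are potency metrics; FIC50 and FIC90 are total Loewe fractional inhibitory concentrations as log2 (negative = synergy).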

[2] = system: Mycobacterium tuberculosis Erdman (autoluminescent); assay: Einf, fitted maximum growth inhibition of three-drug combination (fraction); higher = stronger maximal inhibition
Method: as §1

[3] = system: Mycobacterium tuberculosis Erdman (autoluminescent); assay: total FIC90 (Loewe) at 90% inhibition, three-drug combination (log2); higher = more antagonistic
Method: as §1

[4] = system: Mycobacterium tuberculosis Erdman (autoluminescent); assay: AUC25, normalised area under dose response up to IC25 (three-drug combination) (fraction (0-1)); higher = more potent at low dose
Method: as §1

[5] = system: Mycobacterium tuberculosis Erdman (autoluminescent); assay: total FIC50 (Loewe) at 50% inhibition, three-drug combination (log2); higher = more antagonistic
Method: as §1

CC(C)/N=c1\cc2n(-c3ccc(Cl)cc3)c3ccccc3nc-2cc1Nc1ccc(Cl)cc1 [clofazimine] + CC[C@@H](CO)NCCN[C@@H](CC)CO [ethambutol] + CO[C@H]1/C=C/O[C@@]2(C)Oc3c(C)c(O)c4c(O)c(c(/C=N/N5CCN(C)CC5)c(O)c4c3C2=O)NC(=O)/C(C)=C\C=C\[C@H](C)[C@H](O)[C@@H](C)[C@@H](O)[C@@H](C)[C@H](OC(C)=O)[C@@H]1C [rifampicin]
Settings	AUC25, [4]	Einf, [2]	GRinf, [1]	total FIC50, [5]	total FIC90, [3]
in vitro model: acidic pH 5.7, time point: constant (~7 days, model-specific)	0.0857	0.88	-0.0788	-0.0594	–
in vitro model: acidic pH 5.7, time point: terminal (~4-5 doublings, model-specific)	0.0645	0.973	-0.112	0.213	-0.308
in vitro model: intracellular J774, time point: constant = terminal	–	0.969	-0.295	–	-2.37

Settings	AUC25, [4]	Einf, [2]	GRinf, [1]	total FIC50, [5]	total FIC90, [3]
in vitro model: butyrate, time point: constant (~7 days, model-specific)	0.0971	0.95	-0.114	0.276	–
in vitro model: butyrate, time point: terminal (~4-5 doublings, model-specific)	0.1	0.982	-0.114	0.306	0.441
in vitro model: cholesterol 0.05 mM, time point: constant (~7 days, model-specific)	0.126	0.684	-0.277	–	–
in vitro model: cholesterol 0.05 mM, time point: terminal (~4-5 doublings, model-specific)	0.0974	0.785	0.17	2.31	–
in vitro model: cholesterol-high 0.2 mM, time point: constant (~7 days, model-specific)	0.0508	0.93	-0.277	0.891	–
in vitro model: cholesterol-high 0.2 mM, time point: terminal (~4-5 doublings, model-specific)	0.0801	1	-0.923	1.24	1.32
in vitro model: dormancy (butyrate + nitrate, low O2), time point: constant (~7 days, model-specific)	0.0958	0.828	0.515	0.137	–
in vitro model: dormancy (butyrate + nitrate, low O2), time point: terminal (~4-5 doublings, model-specific)	0.0873	0.991	-0.158	0.0335	-0.232
in vitro model: standard 7H9 glycerol, time point: constant = terminal	0.0958	0.922	0.048	-0.0461	–
in vitro model: valerate, time point: constant (~7 days, model-specific)	0.0993	0.858	0.045	0.749	–
in vitro model: valerate, time point: terminal (~4-5 doublings, model-specific)	0.0696	0.929	0.036	0.485	-0.638

CC[C@@H](CO)NCCN[C@@H](CC)CO [ethambutol] + O=[N+]([O-])c1cn2c(n1)OC[C@@H](OCc1ccc(OC(F)(F)F)cc1)C2 [pretomanid] + NC(=O)c1cnccn1 [pyrazinamide]
Settings	AUC25, [4]	Einf, [2]	GRinf, [1]	total FIC50, [5]	total FIC90, [3]
in vitro model: acidic pH 5.7, time point: constant (~7 days, model-specific)	0.122	0.735	-0.0977	-0.536	–
in vitro model: acidic pH 5.7, time point: terminal (~4-5 doublings, model-specific)	0.091	0.962	-0.384	0.211	-1.13
in vitro model: intracellular J774, time point: constant = terminal	–	0.983	-0.544	–	-0.753

Settings	AUC25, [4]	Einf, [2]	GRinf, [1]	total FIC50, [5]	total FIC90, [3]
in vitro model: butyrate, time point: constant (~7 days, model-specific)	0.0885	0.898	0.0512	0.0336	–
in vitro model: butyrate, time point: terminal (~4-5 doublings, model-specific)	0.0789	0.949	0.0472	0.0804	0.185
in vitro model: cholesterol 0.05 mM, time point: constant (~7 days, model-specific)	0.13	0.709	-0.334	–	–
in vitro model: cholesterol 0.05 mM, time point: terminal (~4-5 doublings, model-specific)	0.129	0.723	-0.277	0.522	–
in vitro model: cholesterol-high 0.2 mM, time point: constant (~7 days, model-specific)	0.0837	0.876	-0.121	0.648	–
in vitro model: cholesterol-high 0.2 mM, time point: terminal (~4-5 doublings, model-specific)	0.0682	0.992	-0.572	0.65	1.05
in vitro model: dormancy (butyrate + nitrate, low O2), time point: constant (~7 days, model-specific)	0.127	0.844	0.4	-0.415	–
in vitro model: dormancy (butyrate + nitrate, low O2), time point: terminal (~4-5 doublings, model-specific)	0.11	0.967	-0.312	0.312	1.35
in vitro model: standard 7H9 glycerol, time point: constant = terminal	0.0755	0.913	0.125	0.461	–
in vitro model: valerate, time point: constant (~7 days, model-specific)	0.0698	0.882	0.0142	-0.111	–
in vitro model: valerate, time point: terminal (~4-5 doublings, model-specific)	0.0514	0.919	0.0593	0.0754	-0.361

COc1nc2ccc(Br)cc2cc1[C@@H](c1ccccc1)[C@@](O)(CCN(C)C)c1cccc2ccccc12 [bedaquiline] + CC[C@@H](CO)NCCN[C@@H](CC)CO [ethambutol] + O=[N+]([O-])c1cn2c(n1)OC[C@@H](OCc1ccc(OC(F)(F)F)cc1)C2 [pretomanid]
Settings	AUC25, [4]	Einf, [2]	GRinf, [1]	total FIC50, [5]	total FIC90, [3]
in vitro model: acidic pH 5.7, time point: constant (~7 days, model-specific)	0.0902	0.854	-0.482	0.869	–
in vitro model: acidic pH 5.7, time point: terminal (~4-5 doublings, model-specific)	0.0847	0.982	-0.316	0.639	0.498
in vitro model: intracellular J774, time point: constant = terminal	–	0.938	-0.203	–	-1.11

Settings	AUC25, [4]	Einf, [2]	GRinf, [1]	total FIC50, [5]	total FIC90, [3]
in vitro model: butyrate, time point: constant (~7 days, model-specific)	0.059	0.925	-0.0548	0.544	–
in vitro model: butyrate, time point: terminal (~4-5 doublings, model-specific)	0.0482	0.966	-0.0543	0.327	-0.226
in vitro model: cholesterol 0.05 mM, time point: constant (~7 days, model-specific)	0.0996	0.781	-0.351	0.964	–
in vitro model: cholesterol 0.05 mM, time point: terminal (~4-5 doublings, model-specific)	0.0849	0.927	-0.277	1.08	1.26
in vitro model: cholesterol-high 0.2 mM, time point: constant (~7 days, model-specific)	0.0639	0.893	-0.294	1.17	–
in vitro model: cholesterol-high 0.2 mM, time point: terminal (~4-5 doublings, model-specific)	0.0509	1	-0.825	1.06	1.39
in vitro model: dormancy (butyrate + nitrate, low O2), time point: constant (~7 days, model-specific)	0.123	0.894	0.353	0.967	–
in vitro model: dormancy (butyrate + nitrate, low O2), time point: terminal (~4-5 doublings, model-specific)	0.115	0.997	-0.265	0.317	0.645
in vitro model: standard 7H9 glycerol, time point: constant = terminal	0.0898	0.972	-0.0976	0.231	–
in vitro model: valerate, time point: constant (~7 days, model-specific)	0.139	0.897	-0.0325	-0.239	–
in vitro model: valerate, time point: terminal (~4-5 doublings, model-specific)	0.0867	0.948	-0.0164	0.257	0.215
